Laboratory results taken from patent US12668600B2 (Kumquat Biosciences Inc., priority 2023, dated 2026).

Legend:
Format in all cases: biochemical
KRAS WT = target: T1, KRAS WT (Homo sapiens, UniProt P01116); assay: HTRF KRAS-SOS1 interaction assay, wildtype KRAS; settings: binned ≤2 μM / >2 μM, read-out: Inhibition of KRAS WT (IC50)
T1 construct: made in house; host or cells: E. coli, e.g. BL21 (DE3)
Description: (§1) This assay can be also used to assess a selective inhibition or reduction of signaling output of a mutant Ras protein relative to a wildtype, or relative to a different mutant Ras protein. For example, the equilibrium interaction of wildtype KRAS or K-Ras mutant (e.g., wildtype or a mutant thereof) with SOS1 (e.g., hSOS1) can be assessed as a proxy or an indication for the ability of a subject compound to bind and inhibit Ras protein. The HTRF assay detects from (i) a fluorescence resonance energy transfer (FRET) donor (e.g., antiGST-Europium) that is bound to GST-tagged K-Ras mutant to (ii) a FRET acceptor (e.g., anti-6His-XL665) bound to a His-tagged hSOS1.
(§2) The assay buffer can contain ˜5 mM HEPES pH 7.4, ˜150 mM NaCl, ˜1 mM DTT, 0.05% BSA and 0.0025% (v/v) Igepal. A Ras working solution is prepared in an assay buffer containing typically a suitable amount of the protein construct (e.g., GST-tagged K-Ras mutant) and the FRET donor (e.g., antiGST-Eu (K) from Cisbio, France). A SOS1 working solution is prepared in an assay buffer containing suitable amount of the protein construct (e.g., His-hSOS1) and the FRET acceptor (e.g., anti-6His-XL665 from Cisbio, France). A suitable amount of the protein construct will depend on the range of activity or range of IC50 values being detected or under investigation. For detecting an IC50 within a range of 500 nM, the protein constructs of the same range of molarity can be utilized.
(§3) A fixed volume of DMSO with or without test compound is transferred into a 384-well plate. Ras working solution is added to all wells of the test plate. SOS1 working solution is added to all wells except for those that are subsequently filled with inhibitor control solution. Upon incubation for about 10 minutes or longer, the fluorescence is measured with a M1000Pro plate reader (Tecan) using HTRF detection (excitation 337 nm, emission 1:620 nm, emission 2:665 nm). Compounds are tested in duplicate at different concentrations (for example, 10 μM, 2.5 μM, 0.63 μM, 0.16 μM, 0.04 μM, 0.01 μM test compound). The ratiometric data (i.e., emission 2 divided by emission 1) is used to calculate IC50 values against Ras using GraphPad Prism (GraphPad software). Signaling output measured in terms of IC50 values can be obtained and a ratio of IC50 against one mutant relative to another mutant can be calculated.

KRAS G12V = target: T2, KRAS G12V (Homo sapiens, UniProt P01116, G12V); assay: HTRF KRAS-SOS1 interaction assay, KRAS G12V; settings: binned ≤2 μM / >2 μM, read-out: Inhibition of KRAS G12V (IC50)
T2 construct: made in house; host or cells: E. coli, e.g. BL21 (DE3)
Description: as §1, §2, §3

KRAS G12S = target: T3, KRAS G12S (Homo sapiens, UniProt P01116, G12S); assay: HTRF KRAS-SOS1 interaction assay, KRAS G12S; settings: binned ≤2 μM / >2 μM, read-out: Inhibition of KRAS G12S (IC50)
T3 construct: made in house; host or cells: E. coli, e.g. BL21 (DE3)
Description: as §1, §2, §3

T2 sequence (P01116 1-188 isoform P01116-2 G12V): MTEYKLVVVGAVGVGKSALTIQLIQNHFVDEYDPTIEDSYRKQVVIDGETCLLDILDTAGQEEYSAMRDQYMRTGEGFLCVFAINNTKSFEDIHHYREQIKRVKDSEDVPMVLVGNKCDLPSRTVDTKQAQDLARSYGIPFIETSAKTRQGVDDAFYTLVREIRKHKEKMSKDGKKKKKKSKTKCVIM
T1 sequence (P01116 1-188 isoform P01116-2): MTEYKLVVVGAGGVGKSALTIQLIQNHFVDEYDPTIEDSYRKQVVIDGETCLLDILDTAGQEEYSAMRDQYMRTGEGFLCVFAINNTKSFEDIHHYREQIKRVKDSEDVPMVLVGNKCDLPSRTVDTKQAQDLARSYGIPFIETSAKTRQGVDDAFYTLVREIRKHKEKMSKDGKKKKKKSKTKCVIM
T3 sequence (P01116 1-188 isoform P01116-2 G12S): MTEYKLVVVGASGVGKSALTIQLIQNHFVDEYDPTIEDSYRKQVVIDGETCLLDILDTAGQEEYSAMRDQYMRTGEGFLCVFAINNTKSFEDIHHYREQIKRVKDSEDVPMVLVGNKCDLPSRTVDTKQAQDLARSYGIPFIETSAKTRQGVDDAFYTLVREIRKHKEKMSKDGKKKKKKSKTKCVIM

Compound | IC50 (KRAS WT) [nM] | IC50 (KRAS G12V) [nM] | IC50 (KRAS G12S) [nM]
C[C@H](c1cccnc1N)N1CCOc2c(Cl)c(-c3cccc4sc(N)c(C#N)c34)c(F)c3nc(OC[C@@]45CCCN4CC(=C(F)F)C5)nc1c23 (single isomer, unassigned) [Compound 660] | ≤ 2000 | ≤ 2000 | ≤ 2000
CC(c1cncnc1N)N1CCOc2c(Cl)c(-c3ccc(F)c4sc(N)c(C#N)c34)c(F)c3nc(OC[C@@]45CCCN4C[C@H](F)C5)nc1c23 (single isomer, unassigned) [Compound 646] | ≤ 2000 | ≤ 2000 | ≤ 2000
CCO/N=C1\CN2CCC[C@@]2(COc2nc3c4c(c(Cl)c(-c5ccc(F)c6sc(N)c(C#N)c56)c(F)c4n2)OCCN3[C@H](C)c2cccnc2N)C1 (single isomer, unassigned) [Compound 627] | ≤ 2000 | ≤ 2000 | ≤ 2000
C#C[C@H]1COc2c(Cl)c(-c3ccc(F)c4sc(N)c(C#N)c34)c(F)c3nc(OC[C@@]45CCCN4C[C@H](F)C5)nc(c23)N1C(C)c1cccnc1N (single isomer, unassigned) [Compound 664] | ≤ 2000 | ≤ 2000 | ≤ 2000
CC(c1cccnc1N)N1c2nc(OC[C@@]34CCCN3C[C@H](F)C4)nc3c(F)c(-c4ccc(F)c5sc(N)c(C#N)c45)c(Cl)c(c23)OC[C@@H]1CC#N (mixture of isomers) [Compound 615, 2-amino-4-((5S)-4-(1-(2-aminopyridin-3-yl)ethyl)-8-chloro-5-(cyanomethyl)-10-fluoro-2-(((2R,7aS)-2-fluorotetrahydro-1H-pyrrolizin-7a (5H)-yl)methoxy)-5,6-dihydro-4H-[1,4]oxazepino[5,6,7-de]quinazolin-9-yl)-7-fluorobenzo[b]thiophene-3-carbonitrile] | ≤ 2000 | ≤ 2000 | ≤ 2000
C[C@H](c1cccnc1N)N1CCOc2c(Cl)c(-c3cccc4sc(N)c(C#N)c34)c(F)c3nc(OC[C@@]45CCCN4C[C@H](F)C5)nc1c23 (single isomer, unassigned) [Compound 668] | ≤ 2000 | ≤ 2000 | ≤ 2000
C[C@H](c1cccnc1N)N1CCOc2c(Cl)c(-c3ccc(F)c4sc(N)c(C#N)c34)c(F)c3nc(OCC4(CN(C)C)CC4)nc1c23 (single isomer, unassigned) [Compound 638] | ≤ 2000 | ≤ 2000 | ≤ 2000
C[C@H](c1cccnc1N)N1CCOc2c(C(F)(F)F)c(-c3cccc4sc(N)c(C#N)c34)c(F)c3nc(OC[C@@]45CCCN4C[C@H](F)C5)nc1c23 (single isomer, unassigned) [Compound 678] | ≤ 2000 | ≤ 2000 | ≤ 2000
C=Cc1c(-c2ccc(F)c3sc(N)c(C#N)c23)c(F)c2nc(OC[C@@]34CCCN3C[C@H](F)C4)nc3c2c1OCCN3[C@H](C)c1cccnc1N (single isomer, unassigned) [Compound 603] | ≤ 2000 | ≤ 2000 | ≤ 2000

Results, then the molecule that gave them:

IC50 (KRAS WT) [nM] | IC50 (KRAS G12V) [nM] | IC50 (KRAS G12S) [nM] | Compound
≤ 2000 | ≤ 2000 | ≤ 2000 | CN(C)CC[C@H](c1cccnc1N)N1CCOc2c(C(F)(F)F)c(-c3ccc(F)c4sc(N)c(C#N)c34)c(F)c3nc(OC[C@@]45CCCN4C[C@H](F)C5)nc1c23 (single isomer, unassigned) [Compound 669]
≤ 2000 | ≤ 2000 | ≤ 2000 | CP(C)(=O)CC[C@H](c1cccnc1N)N1CCOc2c(C(F)(F)F)c(-c3ccc(F)c4sc(N)c(C#N)c34)c(F)c3nc(OC[C@@]45CCCN4C[C@H](F)C5)nc1c23 (single isomer, unassigned) [Compound 671]
≤ 2000 | ≤ 2000 | ≤ 2000 | N#Cc1c(N)sc2c(F)ccc(-c3c(C(F)(F)F)c4c5c(nc(OC[C@@]67CCCN6C[C@H](F)C7)nc5c3F)N([C@@H](c3cccnc3N)C(F)F)CCO4)c12 (single isomer, unassigned) [Compound 625]
≤ 2000 | ≤ 2000 | ≤ 2000 | N#Cc1c(N)sc2c(F)ccc(-c3c(C(F)(F)F)c4c5c(nc(OC[C@@]67CCCN6C[C@H](F)C7)nc5c3F)N([C@H](CCC3COCCO3)c3cccnc3N)CCO4)c12 (single isomer, unassigned) [Compound 624]
≤ 2000 | ≤ 2000 | ≤ 2000 | N#Cc1c(N)sc2c(F)ccc(-c3c(C(F)(F)F)c4c5c(nc(OC[C@@]67CCCN6C[C@H](F)C7)nc5c3F)N([C@H](CC3CC(F)(F)C3)c3cccnc3N)CCO4)c12 (single isomer, unassigned) [Compound 686]
≤ 2000 | ≤ 2000 | ≤ 2000 | C[C@H](c1cccnc1N)N1CCOc2c(C(F)(F)F)c(-c3ccc(F)c4sc(N)c(C#N)c34)c(F)c3nc(OC[C@@]45CCCN4CC(C#N)C5)nc1c23 (single isomer, unassigned) [Compound 663]
≤ 2000 | ≤ 2000 | ≤ 2000 | N#Cc1c(N)sc2c(F)ccc(-c3c(C(F)(F)F)c4c5c(nc(OC[C@@]67CCCN6C[C@H](F)C7)nc5c3F)N([C@H](CCC3CCOCC3)c3cccnc3N)CCO4)c12 (single isomer, unassigned) [Compound 611]
≤ 2000 | ≤ 2000 | ≤ 2000 | C[C@H]1CN([C@@H](c2cccnc2N)C(F)F)c2nc(OC[C@@]34CCCN3C[C@H](F)C4)nc3c(F)c(-c4ccc(F)c5sc(N)c(C#N)c45)c(C(F)(F)F)c(c23)O1 (single isomer, unassigned) [Compound 879]
≤ 2000 | ≤ 2000 | ≤ 2000 | CS(=O)(=O)CCC[C@H](c1cccnc1N)N1CCOc2c(C(F)(F)F)c(-c3ccc(F)c4sc(N)c(C#N)c34)c(F)c3nc(OC[C@@]45CCCN4C[C@H](F)C5)nc1c23 (single isomer, unassigned) [Compound 629]
≤ 2000 | ≤ 2000 | ≤ 2000 | N#Cc1c(N)sc2c(F)ccc(-c3c(Cl)c4c5c(nc(OC[C@@]67CCCN6C[C@H](F)C7)nc5c3F)N(C(CC(F)F)c3cccnc3N)CCO4)c12 (mixture of isomers) [Compound 681, 2-amino-4-(4-(1-(2-aminopyridin-3-yl)-3,3-difluoropropyl)-8-chloro-10-fluoro-2-(((2R,7aS)-2-fluorotetrahydro-1H-pyrrolizin-7a(5H)-yl)methoxy)-5,6-dihydro-4H-[1,4]oxazepino[5,6,7-de]quinazolin-9-yl)-7-fluorobenzo[b]thiophene-3-carbonitrile]
≤ 2000 | ≤ 2000 | ≤ 2000 | CCC(c1cccnc1N)N1CCOc2c(Cl)c(-c3ccc(F)c4sc(N)c(C#N)c34)c(F)c3nc(OC[C@@]45CCCN4C[C@H](F)C5)nc1c23 (mixture of isomers) [Compound 643, 2-amino-4-(4-(1-(2-aminopyridin-3-yl)propyl)-8-chloro-10-fluoro-2-(((2R,7aS)-2-fluorotetrahydro-1H-pyrrolizin-7a(5H)-yl)methoxy)-5,6-dihydro-4H-[1,4]oxazepino[5,6,7-de]quinazolin-9-yl)-7-fluorobenzo[b]thiophene-3-carbonitrile]
≤ 2000 | ≤ 2000 | ≤ 2000 | N#Cc1c(N)sc2c(F)ccc(-c3c(C(F)(F)F)c4c5c(nc(OC[C@@]67CCCN6C[C@H](F)C7)nc5c3F)N([C@H](CCN3CCOCC3)c3cccnc3N)CCO4)c12 (single isomer, unassigned) [Compound 685]
≤ 2000 | ≤ 2000 | ≤ 2000 | N#Cc1c(N)sc2c(F)ccc(-c3c(Cl)c4c5c(nc(OC[C@@]67CCCN6C[C@H](F)C7)nc5c3F)N(C(/C=C\C(F)(F)F)c3cccnc3N)CCO4)c12 (single isomer, unassigned) [Compound 632]
